# Experimental data as given in patent EP0802900B1, “ANTIARRHYTHMIC (S)-ENANTIOMERS OF METHANESULFONAMIDES” (priority 1995, dated 1996).
# Read-outs that look alike come from different tables or passages of the source.
# Columns and labels:
# [1] = test system: methoxamine treated rabbits; assay: Early after depolarizations (EAD) and polymorphic ventricular tachycardia (PVT) in methoxamine treated anesthetized rabbits; format: in vivo, New Zealand White rabbits; conditions: for EAD: Magnitude of the maximum early after depolarization amplitude as a percent of the monophasic action potential amplitude (APA) / MAPD90: Maximum increase in the ventricular monophasic action potential duration from the methoxamine infusion baseline, measured at 90% repolarization / PVT: Ratio of the number of animals that developed polymorphic ventricular tachycardia to the total number of animals evaluated / QTc: Maximum increase in QTc interval from the methoxamine infusion baseline: continuous intravenous infusion over 1 hour, methoxamine 10 µg/kg/minute
# Procedure: The Formula I compounds were evaluated for their ability to produce early after depolarizations (EAD) and polymorphic ventricular tachycardia (PVT) in methoxamine treated rabbits. The method used was as follows:
# Male New Zealand White rabbits (2.5 - 3.5 kg,) were pretreated with subcutaneous morphine sulfate (5 mg/kg) 30 minutes prior to anesthesia. Anesthesia was induced by infusion of α-chloralose (90 - 120 mg/kg) through a marginal ear vein over a period of 20 to 30 minutes. A tracheotomy was performed and the rabbit was respirated with room air (5 - 6 cc/kg) using a small animal ventilator (Columbus Instruments, Columbus, OH). Respiration rate, and tidal volume were adjusted, and supplemental oxygen administered to maintain arterial blood gases and pH within normal physiologic ranges. Catheters were placed in a jugular vein and carotid artery for administration of drugs, and measurement of arterial blood pressure, respectively. A 4 French monophasic action potential catheter was introduced through a jugular vein for monitoring of right ventricular monophasic action potential duration which was measured at 90% repolarization (MAPD90), A lead II ECG and arterial blood pressure were monitored throughout the experiments.
# All records were obtained on a multichannel recorder (Gould ES 2000, Cleveland, OH) and experiments were continuously recorded on FM magnetic tape (TEAC 501, Montebello, CA) for subsequent playback and analysis.
# Following experimental preparation, the rabbits were allowed to equilibrate for 10 minutes before baseline measurements of heart rate, aortic blood pressure, and QTc interval were made. During the equilibration period, monophasic action potentials were monitored and the catheter adjusted to produce action potentials with a stable amplitude. Following baseline measurements, the α1 agonist methoxamine was infused at a rate of 10 µg/kg/minute at an infusion volume of 12.0 ml/hr. After 15 minutes of methoxamine administration, intravenous infusion of saline (vehicle control) or a class III agent was begun. All agents were administered as a continuous infusion over a 1 hour period. Measurement of heart rate, aortic blood pressure. QTc interval (as defined below), and MAPD90 were repeated at several time points during drug administration to provide dose-response relationships. QTc and MAPD90 were also monitored to insure that maximal class III effects on these parameters had been achieved.
# Total accumulated dose at the first incidence of PVT was also measured. Repolarization arrhythmias were characterized as early after depolarizations and extrasystoles during repolarization which produced extrasystoles in lead II ECG. PVT was considered to have occurred if 3 or more closely coupled repetitive extrasystoles with a twisting or torsioning QRS morphology were observed.
# QT intervals were corrected for heart rate changes using the formula QTc = QT/square root R-R interval. EADs were compared between treatment groups at stable monophasic action potential amplitudes (APA) and are reported as a percent of the APA.
# Examples of Formula I compounds evaluated in this manner are collected in Table II. A measure of Class III antiarrhythmic activity is indicated by an increase in QTc and MAPD90. The proarrhythmic potential is indicated by the incidence and magnitude of the EADs and by the ratio of the incidence of PVT to the total number of animals tested. The corresponding data for ibutilide, a compound of U.S. Patent 5,155,268, and the racemc forms Examples (R.S) (compounds of PCT WO 91/01299) are shown for comparison.
# rabbit papillary muscle = assay: Electrophysiological activity in isolated, perfused rabbit cardiac tissue (effective refractory period); design: species or system New Zealand White rabbits; conditions: drug concentration of 10^-5M; for activation at 10 µM: Oryctolagus cuniculus
# Procedure: According to Scheme 1, in Step I, (4-methanesulfonylamino)-γ-oxobenzenebutanoic acid (II, prepared as described in EP 164 865) is convened to the N-ethylamide (III). Standard amide forming reagents such as dicyclohexylcarbodiimide or preferably isobutyl chloroformate can be used for this purpose. In Step II the ketone of III is reduced with the chiral reagent (-)-B-chlorodiisopinocamphenylborane in tetrahydrofuran. The reaction is carried out below 0°C and preferably at -25 to -35°C. A nonaqueous work up is used to facilitate isolation of the water soluble product. The (S)-(-) enantiomer of the chiral alcohol is obtained. Purification of this alcohol by recrystallization from acetonitrile, methanol, ethanol, tert-butyl methyl ether or mixtures thereof gives IV with high enantiomeric purity. In Step III the amide of IV is reduced with sodium bis-(2-methoxyethoxy)aluminum hydride in tetrahydrofuran at 24°C. A neutral nonaqueous work up is employed to facilitate isolation of the water soluble product (V). Alkylation of V with appropriately substituted alkyl bromides (R3CH2Br) to give the compounds (I) of this invention is accomplished in Step IV. The preferred conditions for this reaction employ acetonitrile as solvent and the weakly basic sodium bicarbonate to neutralize the hydrogen bromide generated by the reaction. The reaction is usually carried out at the reflux temperature (81°C). [drawing 2] The Formula I compounds were evaluated for electrophysiological activity in an isolated, perfused rabbit cardiac tissue system. The method used was as follows:
# New Zealand White rabbits of either sex (1.5-2.0 kg) were anesthetized and their hearts removed. The heart was immersed in ice cold perfusate while the right atria (RA), papillary muscles (PAP), and right ventricular muscle strips (RV) were isolated. The perfusate was continuously oxygenated with 95% oxygen and 5% carbon dioxide and contained the following in mM concentrations: NaCI 118.0; KCl 5.4; NaHCO3 25.0; MgCl2 1.2: KH2PO4 1.0; CaCl2 2.4; glucose […] and pyruvic acid 2.0. During hypoxic conditions the perfusate was exposed to a mixture of 83% nitrogen, 10% carbon dioxide and 7% oxygen. The pH during normoxia was approximately 7.4 and dropped to approximately 7.2 during hypoxic conditions.
# The tissues were individually mounted on a plexiglass holder containing platinum stimulating electrodes and suspended in a 100 ml bath maintained at 30°C by a circulating heat pump. All tissues were attached by silk suture to a force-displacement transducer and a tissue-dependent preload of 500-1000 mg was applied. RA were allowed to contract spontaneously. RV and PAP were stimulated at 2X threshold with 4 msec rectangular pulses at a frequency of 1 and 3 Hz. (Effective refractory period measurements percent increment over control are ERPI and ERP3, conduction time measurements are CT1 and CT3). Between measurements those tissues were stimulated at a resting pace of 2 Hz. Each tissue served as its own baseline control and was allowed an equilibration period of two hours prior to experiments. During this period the perfusate was changed every 10-15 minutes.
# Working solutions of the drugs were prepared by dissolving the drugs in distilled water and one drop of NaOH/ml to aid in dissolution (pH 9.4).
# Measurements were made on each set of tissues after exposure to 10^-7, 10^-6, or 10^-5M drug for 15 minutes; and 10^-5M drug under hypoxic conditions for 15 minutes.
# Automaticity (RATE), force of contraction (FOC) and threshold were measured directly on a polygraph. The ERP of cardiac tissues by definition is the longest coupling interval between the basic drive (S1) and the premature impulse (S2) that fails to propagate through the tissue. The S2 stimulus was introduced after every eighth Sl which allowed time for stabilization of refractoriness. Refractory period measurements were made via a digital timing circuit. […]
# [2] = value in parentheses in EAD column
# [3] = pacing rate of 1 Hz, read-out: ERP1: percent increase in the effective refractory period over control values
# [4] = pacing rate of 3 Hz, read-out: ERP3: percent increase in the effective refractory period over control values
Compound,EAD: Magnitude of the maximum early after depolarization amplitude as a percent of the monophasic action potential amplitude (APA) [1],"MAPD90: Maximum increase in the ventricular monophasic action potential duration from the methoxamine infusion baseline, measured at 90% repolarization [1]",PVT: Ratio of the number of animals that developed polymorphic ventricular tachycardia to the total number of animals evaluated [1],QTc: Maximum increase in QTc interval from the methoxamine infusion baseline [1],"Total accumulated dose of test compound when the maximum EAD was measured [1, 2]",Total accumulated dose at the first incidence of PVT ([1]; value in parentheses in PVT),activation at 10 µM (rabbit papillary muscle; [3]),activation at 10 µM (rabbit papillary muscle; [4]),"Total accumulated dose at the first incidence of PVT ([1]; rabbit, in vivo)","Total accumulated dose of test compound when the maximum EAD was measured ([1]; rabbit, in vivo)",ERP1: percent increase in the effective refractory period over control values (rabbit papillary muscle; pacing rate of 1 Hz),ERP3: percent increase in the effective refractory period over control values (rabbit papillary muscle; pacing rate of 3 Hz)
"CCN(CCCCCCCF)CCCC(O)c1ccc(NS(C)(=O)=O)cc1 (racemic) [(R,S) 1]",52%,+128 m sec,1/6,+143 m sec,0.5 mg/kg,2 mg/kg,–,–,–,–,–,–
"CCN(CCCCCC(C)F)CCCC(O)c1ccc(NS(C)(=O)=O)cc1 (racemic) [(R,S) 2]",63%,+141 m sec,3/6,+166 m sec,1 mg/kg,0.2 mg/kg,–,–,–,–,–,–
"CCN(CCCCCC(C)(C)F)CCCC(O)c1ccc(NS(C)(=O)=O)cc1 (racemic) [(R,S) 3]",35%,+96 m sec,1/6,+136 m sec,0.25 mg/kg,0.2 mg/kg,–,–,–,–,–,–
"CCN(CCCCCC(C)(C)F)CCC[C@H](O)c1ccc(NS(C)(=O)=O)cc1 [Example 3, (S)-(-)-N-[4-[4-[Ethyl(6-fluoro-6-methylheptyl)amino]-1-hydroxybutyl]phenyl]-methanesulfonamide]",0%,+75 m sec,0/16,+82 m sec,–,–,21.4%,25.4%,–,–,–,–
"CCCCCCCN(CC)CCCC(O)c1ccc(NS(C)(=O)=O)cc1 (stereo not drawn) [Ibutilide, ibutilide]",–,+114 m sec,–,+95 m sec,–,–,18%,15.8%,1 mg/kg,4 mg/kg,–,–
"(S)-(-)-N-[4-[4-[Ethyl(6-fluoroheptyl)amino]-1-hydroxybutyl]phenyl]methanesulfonamide, (E)-2-Butenedioate (2:1 salt) [Example 2]",0%,+88 m sec,0/16,+119 m sec,–,–,–,–,–,–,30.7%,8.7%
"(S)-(-)-N-[4-[4-[Ethyl(7-fluoroheptyl)amino]-1-hydroxybutyl]phenyl] methanesulfonamide, (E)-2-Butenedioate (2:1 salt) [Example 1]",0%,+70 m sec,0/16,+112 m sec,–,–,–,–,–,–,43.5%,26.1%
